The results in this text go back to patent publication US20090263397A1, “Combination anti-cancer therapy” (priority 2007, published 2009).

Assay [1] relates to H322 tumor cells. The experiment in a line: Caspase 3/7 Glo apoptosis assay, H322. The assay is classed as cell-based, human.
Experimental: (§1) The combination of varying concentrations of OSI-906 (30 nM-3 μM) with 3 nM Taxol on the induction of apoptosis at 24 hours post dosing (Caspase GlO™, Promega) was determined for a panel of 5 NSCLC tumor cell lines (H460, H292, H322, H358, and Calu6).
Measurement of apoptosis: Induction of apoptosis as measured by increased Caspase 3/7 activity was determined using the Caspase 3/7 Glo assay (Promega Corporation, Madison, Wis.). Cell lines were seeded at a density of 3000 cells per well in a 96-well plate. 24 hours after plating cells were dosed with varying concentrations of drug, either as a single agent or in combination. The signal for Caspase 3/7 Glo was determined 24 hours after dosing. The caspase 3/7 activity was normalized to cell number per well, using a parallel plate treated with Cell Titer Glo (Promega Corporation, Madison, Wis.). Signal for each well was normalized using the following formula: Caspase 3/7 Glo luminescence units/Cell Titer Glo fraction of DMSO control. All graphs were generated using PRISM® software (Graphpad Software, San Diego, Calif.).
In assay [2] the test system is H292 tumor cells. The assay is described as follows: Caspase 3/7 Glo apoptosis assay, H292. It is filed as cell-based, human. To be noted: OSI-906 30 nM-3 μM with 50 uM cisplatin, 24 hours, compared with single agents.
Experimental: The combination of varying concentrations of OSI-906 (30 nM-3 μM) with 50 uM cisplatin on the induction of apoptosis at 24 hours post dosing (Caspase Glo, Promega) was determined for a panel of 5 NSCLC tumor cell lines (H460, H292, H322, H358, and Calu6). The fold induction in apoptosis greater than the sums achieved by the single agents is noted in the table.
(§2) Measurement of apoptosis: Induction of apoptosis as measured by increased Caspase 3/7 activity was determined using the Caspase 3/7 Glo assay (Promega Corporation, Madison, Wis.). Cell lines were seeded at a density of 3000 cells per well in a 96-well plate. 24 hours after plating cells were dosed with varying concentrations of drug, either as a single agent or in combination. The signal for Caspase 3/7 Glo was determined 24 hours after dosing. The caspase 3/7 activity was normalized to cell number per well, using a parallel plate treated with Cell Titer Glo (Promega Corporation, Madison, Wis.). Signal for each well was normalized using the following formula: Caspase 3/7 Glo luminescence units/Cell Titer Glo fraction of DMSO control.
In assay [3] the test system is Akt. The experiment in a line: Western blotting of Akt phosphorylation, A673. To be noted: 24 hour; for Akt pathway activity / activation state, single agent: OSI-906 3 uM, Doxorubicin 500nM or 1 μM. (In general: Immunoblotting shows a protein as a band on a membrane.)
For assay [4], the system named is H460 tumor cells. The experiment in a line: Caspase 3/7 Glo apoptosis assay, H460. It is filed as cell-based, human. To be noted: 24 hours.
Experimental: as §1
A. Effect of varying concentrations of OSI-906, alone or in the presence of 12 nM Taxol, on apoptosis for H460 tumor cells. Apoptosis was measured 24 hours after dosing and determined by caspase 3/7 activity (Caspase GlO™, Promega). […] The dotted line represents the theoretical expectation for additivity and was calculated using the Bliss model for additivity.
as §2
Assay [5] concerns IR. The experiment in a line: Proteome Profiler RTK capture array, pIR in A673. The assay is classed as cell-based, human. As to conditions: for phosphorylation of IR, single agent: OSI-906 3 μM, Doxorubicin 500 nM, MAB391 10 ug/ml.
Experimental: (§3) Effect of OSI-906 (3 μM), Doxorubicin (500 nM), the combination of OSI-906+ doxorubicin, MAB391 (10 ug/ml), and the combination of MAB391+ doxorubicin on the phosphorylation states for IR and IGF-1R. Phosphorylation of IR and IGF-1R was realized using the Proteome Profiler™ RTK capture Array (R & D Systems).
(§4) Proteome profiler arrays housing 42 different RTKs were purchased from R&D systems (Minneapolis, Minn.) and processed according to the manufacturer's protocol. RTKs included on the array include: HER1, HER2, HER3, HER4, FGFR1, FGFR2a, FGFR3, FGFR4, IR, IGF-1R, Ax1, Dtk, Mer, HGFR, MSPR, PDGFRα, PDGFRβ, SCFR, Flt-3, M-CSFR, c-Ret, ROR1, ROR2, Tie-1, Tie-2, TrkA, TrkB, TrkC, VEGFR1, VEGFR2, VEGFR3, MuSK, EphA1, EphA2, EphA3, EphA4, EphA6, EphA7, EphB1, EphB2, EphB4, EphB6. This array was used as an RTK capture assay for determining pIGF-1R levels.
For assay [6], the system named is MDA-1186 tumor cells. The experiment in a line: Caspase 3/7 Glo apoptosis assay, MDA-1186. The assay is classed as cell-based, human.
Experimental: The effect of varying concentrations of OSI-906 (0, 0.3 nM, 1 uM, 3 μM, and 5 μM) on apoptosis in the presence or absence of Taxol (10 nM) or cisplatin (50 μM) for the MDA-1186 SCCHN tumor cell line. Apoptosis measurements were determined by measuring caspase 3/7 activity (Caspase Glo, Promega) and were captured 24 and 48 hours after dosing.
as §2
Assay [7] deals with IGF-1R. The assay is described as follows: Proteome Profiler RTK capture array, pIGF-1R in A673. As to conditions: for phosphorylation of IGF-1R, single agent: OSI-906 3 μM, Doxorubicin 500 nM, MAB391 10 ug/ml.
Experimental: as §3, §4
The subject of assay [8] is Akt phosphorylation (pAkt-S473). The assay is described as follows: Western blotting of Akt phosphorylation, MDA-MB-231.
In assay [9] the test system is SK-ES-1 tumor cells. The assay is described as follows: Caspase 3/7 Glo apoptosis assay, SK-ES-1. The assay is classed as cell-based, human. To be noted: in the presence of 1 μM doxorubicin, 24 hours.
Experimental: Effect of varying concentrations of OSI-906 (0, 300 nM, 1 μM, 3 μM, or 5 μM) on the induction of apoptosis for SK-ES-1 tumor cells, in the presence or absence of 1 μM doxorubicin. Apoptosis was determined by measuring caspase 3/7 activity (Caspase GlO™, Promega), and measurements were captured 24 hours after dosing. Measurement of apoptosis: Induction of apoptosis as measured by increased Caspase 3/7 activity was determined using the Caspase 3/7 Glo assay (Promega Corporation, Madison, Wis.). Cell lines were seeded at a density of 3000 cells per well in a 96-well plate. 24 hours after plating cells were dosed with varying concentrations of drug, either as a single agent or in combination. The signal for Caspase 3/7 Glo was determined 24 hours after dosing. The caspase 3/7 activity was normalized to cell number per well, using a parallel plate treated with Cell Titer Glo (Promega Corporation, Madison, Wis.). Signal for each well was normalized using the following formula: Caspase 3/7 Glo luminescence units/Cell Titer Glo fraction of DMSO control.
Assay [10] concerns A673 tumor cells. The assay is described as follows: Caspase 3/7 Glo apoptosis assay, A673. The assay is classed as cell-based, human. As to conditions: in the presence of doxorubicin (333 nM or 1 uM), listed as OSI-906. On the procedure: FIG. 3: OSI-906 synergizes with doxorubicin to inhibit cell growth and survival in A673 ES (Ewing's Sarcoma) tumor cells. A. Effect of varying concentrations of doxorubicin, in the presence and absence of 5 μM OSI-906, on the proliferation of A673 tumor cells. Proliferation data were collected 48 hours after dosing and realized using the Cell Titer Glo™ assay (Promega). The dotted line in the plot represents the calculated theoretical expectation if the combination was additive in nature and was determined using the Bliss model for additivity. B. Effect of varying concentrations of OSI-906 (0, 300 nM, and 1 μM) on the induction of apoptosis for A673 tumor cells, in the presence or absence of 333 nM doxorubicin. Apoptosis was determined by measuring caspase 3/7 activity (Caspase GlO™, Promega), and measurements were captured 48 hours after dosing.
FIG. 5: OSI-906 has the potential to promote greater synergy with doxorubicin in ES tumor cells than neutralizing IGF-1R antibodies. Effect of varying concentrations of OSI-906 (0, 300 nM, 1 μM, and 3 μM) or the IGF-1R neutralizing antibody α-IR3 (10 ug/ml) on the induction of apoptosis for A673 tumor cells, in the presence or absence of 333 nM or 1 uM doxorubicin. Apoptosis was determined by measuring caspase 3/7 activity (Caspase GlO™, Promega), and measurements were captured 24 hours after dosing.

The subject of assay [11] is Erk. The experiment in a line: Western blotting of Erk phosphorylation, A673. To be noted: 24 hour; for MAPK (Erk) pathway activity / activation state, single agent: OSI-906 3 uM, Doxorubicin 500nM or 1 μM.
Assay [12] relates to H358 tumor cells. The assay is described as follows: Caspase 3/7 Glo apoptosis assay, H358. The assay is classed as cell-based, human. As to conditions: Taxol 3 nM, 24 hours.
Experimental: as §1
The effect of varying concentrations of OSI-906 (0, 0.3 nM, 1 μM, 3 μM, and 5 μM) on apoptosis in the presence or absence of Taxol (3 nM) for H292 and H358 NSCLC tumor cell lines. Apoptosis measurements were determined by measuring caspase 3/7 activity (Caspase GlO™, Promega) and were captured 24 hours after dosing.
as §2
In assay [13] the test system is H460 tumor cells. The experiment in a line: Cell Titer Glo overall cell growth, H460. The assay is classed as cell-based, human. (In general: In ATP-based viability assays light output follows the ATP content of the culture.)
Experimental: B. Effect of varying concentrations of taxol, alone or in the presence of 5 μM OSI-906 on overall cell growth. Overall cell growth was determined by the Cell Titer Glo™ assay (Promega) and measured 72 hours after dosing. The dotted line represents the theoretical expectation for additivity and was calculated using the Bliss model for additivity. Measurement of Cell Proliferation: Cell proliferation was determined using the Cell Titer Glo assay (Promega Corporation, Madison, Wis.). Tumor cells were seeded at a density of 3000 cells per well in a 96-well plate. 24 hours after plating cells were dosed with varying concentrations of drug, either as a single agent or in combination. Using parallel replicate plates, the signal for Cell Titer Glo was determined 24 hours after dosing.
The test system of assay [14] is MDA-MB-231 cells. The experiment in a line: Caspase 3/7 Glo apoptosis assay, MDA-MB-231. It is filed as cell-based, human. As to conditions: 24 hours.
Experimental: Apoptosis measurements were captured 24 hours after dosing, and apoptosis was assayed by measurement of caspase 3/7 activity. Measurement of apoptosis: Induction of apoptosis as measured by increased Caspase 3/7 activity was determined using the Caspase 3/7 Glo assay (Promega Corporation, Madison, Wis.). Cell lines were seeded at a density of 3000 cells per well in a 96-well plate. 24 hours after plating cells were dosed with varying concentrations of drug, either as a single agent or in combination. The signal for Caspase 3/7 Glo was determined 24 hours after dosing. The caspase 3/7 activity was normalized to cell number per well, using a parallel plate treated with Cell Titer Glo (Promega Corporation, Madison, Wis.). Signal for each well was normalized using the following formula: Caspase 3/7 Glo luminescence units/Cell Titer Glo fraction of DMSO control.
Assay [15] deals with SK-ES-1 tumor cells. The assay is described as follows: Cell Titer Glo overall cell growth, SK-ES-1. The assay is classed as cell-based, human. On the procedure: Measurement of Cell Proliferation: Cell proliferation was determined using the Cell Titer Glo assay (Promega Corporation, Madison, Wis.). […] Using parallel replicate plates, the signal for Cell Titer Glo was determined 24 hours after dosing.

For assay [16], the system named is A673 tumor cells. The assay is described as follows: Cell Titer Glo overall cell growth, A673. It is filed as cell-based, human. As to conditions: 5 μM OSI-906, 48 hours, versus Bliss additivity.
Experimental: A. Effect of varying concentrations of doxorubicin, in the presence and absence of 5 μM OSI-906, on the proliferation of A673 tumor cells. Proliferation data were collected 48 hours after dosing and realized using the Cell Titer Glo™ assay (Promega). The dotted line in the plot represents the calculated theoretical expectation if the combination was additive in nature and was determined using the Bliss model for additivity. […] Measurement of Cell Proliferation: Cell proliferation was determined using the Cell Titer Glo assay (Promega Corporation, Madison, Wis.). Tumor cells were seeded at a density of 3000 cells per well in a 96-well plate. 24 hours after plating cells were dosed with varying concentrations of drug, either as a single agent or in combination. Using parallel replicate plates, the signal for Cell Titer Glo was determined 24 hours after dosing.
Assay [17] deals with Akt. The assay is described as follows: Western blotting of Akt phosphorylation, H292. The assay is classed as cell-based, human. To be noted: H292 in vitro; 30 nM paclitaxel; 2, 6, 24 hours.
Experimental: H292 cells were treated with 30 nM paclitaxel (in the presence and absence of 3 μM OSI-906), and the phosphorylation state for Akt was determined by Western blotting.
In assay [18] the test system is IGF-1R. The assay is described as follows: RTK capture array, pIGF-1R in H358 cells. To be noted: taxol 100 nM, 24 hours.
Assay [19] deals with IGF-1R. The assay is described as follows: In vivo pharmacodynamic study, pIGF-1R in H292 xenografts. As to conditions: mice bearing H292 xenografts; 24 mg/kg paclitaxel; 24 hours.
Experimental: B. Mice bearing H292 xenografts were treated with 24 mg/kg paclitaxel for 24 hours prior to harvesting tumors. Tumors were profiled for pIGF-1R levels using the RTK capture array, in duplicate. Four separate animals were used: Control (Ctrl) A1; Control (Ctrl) A2; Paclitaxel-treated A1; and Paclitaxel-treated A2.
Proteome profiler arrays housing 42 different RTKs were purchased from R&D systems (Minneapolis, Minn.) and processed according to the manufacturer's protocol. […] This array was used as an RTK capture assay for determining pIGF-1R levels.
Female athymic nude nu/nu CD-1 mice (6-8 wks, 22-29 g) were obtained from Charles River Laboratories (Wilmington, Mass.). Animals were allowed to acclimate for a minimum of one week prior to initiation of a study. Throughout the studies, animals were allowed sterile rodent chow and water ad libitum, and animals were maintained under specific pathogen free conditions.
NCI—H292 NSCLC tumor cells were harvested from cell culture flasks during exponential cell growth, washed twice with sterile PBS, counted and resuspended in PBS to a suitable concentration before s.c. implantation on the right flank of female nu/nu CD-1 mice. Tumors were established to 200+/−50 mm in size before randomization into treatment groups. Paclitaxel or cisplatin were administered at the indicated dose, and tumors from treated mice were harvested at 24 hours after dosing. […]
Assay [20] concerns IGF-1R. The experiment in a line: RTK capture array, pIGF-1R in H292 cells. It is filed as cell-based, human.
Experimental: Also shown is the effect of taxol (100 nM) on IGF-1R phosphorylation for H292 and H358 tumor cells. Phosphorylation was captured 24 hours after dosing with taxol and realized using the Proteome Profiler™ RTK capture Array (R & D Systems).
A. Effect of varying concentrations of taxol on pIGF-1R for H292 tumor cells. pIGF-1R was measured 24 hours after dosing and realized using the proteome profiler RTK capture array (R & D Systems).
A. H292 NSCLC tumor cells were treated with 30 nM paclitaxel for varying time points, alone or in the presence of 3 μM OSI-906. The phosphorylation of IGF-1R was determined by an RTK capture array, in duplicate (pIGF-1R=phosphorylated IGF-1R).
as §4
The subject of assay [21] is IGF-1R complex. The experiment in a line: phosphorylation of the IGF-1R complex in MDA-1186 (data not shown). The assay is classed as cell-based, human.

Each structure is given as a SMILES string. Values joined by “and” are separate entries in the source; they are usually repeats but may differ in a detail not shown here. Identical values can stand only once. “Also recorded” adds a separate entry of the source. Some results are limits rather than exact numbers.

Regarding `CC1(O)CC(c2nc(-c3ccc4ccc(-c5ccccc5)nc4c3)c3c(N)nccn23)C1` (stereo not drawn) [Compound D, cis-3-[8-amino-1-(2-phenyl-quinolin-7-yl)-imidazo[1,5-a]pyrazin-3-yl]-1-methyl-cyclobutanol], in assay [1] (OSI-906 30 nM-3 μM with 3 nM Taxol, 24 hours), the “apoptosis gain, combination with taxol” value is recorded as above 2 fold. For the same compound, the “induction of apoptosis, combination with paclitaxel” value in assay [1] (paclitaxel and OSI-906) is reported as “synergistic induction of apoptosis”. In addition, in [2], the “increase in apoptosis (apoptosis gain), combination with cisplatin” value was > 3 fold and > 2 fold. For the same compound, the “Akt activation state, co-treatment with doxorubicin” value in [3] (OSI-906 3 uM plus doxorubicin) is “gain in activity can be inhibited upon co-treatment with OSI-906”. In addition, the “Akt pathway activity / activation state, single agent” value in assay [3] was “achieves inhibition of both pathways”. Moreover, the “apoptosis, single agent” value in [4] (OSI-906 alone) is “fails to promote apoptosis or significantly inhibit cell growth”; in assay [6] (OSI-906 alone), “did not achieve significant apoptosis as a single agent”. For the same compound, the “apoptosis, combination with taxol” value is “synergistic promotion of apoptosis and inhibition of cell survival; also recorded: increase the pro-apoptotic effects of doxorubicin” in [4] (in the presence of 12 nM Taxol, listed as OSI-906); “promoted a dose dependent increase in apoptosis; also recorded: synergistic induction of apoptosis” in [6] (Taxol 10 nM, 24 and 48 hours, listed as OSI-906). The “phosphorylation of IR, single agent” value in assay [5] is “achieves inhibition for both pIR and pIGF-1R”. Moreover, the “phosphorylation of IR, combination with doxorubicin” value in assay [5] (with Doxorubicin 500 nM) was “blocked upon co-treatment with OSI-906”. For the same compound, in assay [7], the “phosphorylation of IGF-1R, single agent” value was “achieves inhibition for both pIR and pIGF-1R”. Moreover, in assay [7] (with Doxorubicin 500 nM), the “phosphorylation of IGF-1R, combination with doxorubicin” value is reported as “blocked upon co-treatment with OSI-906”. In addition, the “Akt phosphorylation (pAkt-S473), combination with doxorubicin” value in [8] (combination of doxorubicin and Compound D) was “efficacious at inhibiting the increase in Akt phosphorylation provoked by doxorubicin”. Further, the “apoptosis (caspase 3/7 activity), combination with doxorubicin” value in [9] is “synergistic promotion of apoptosis”; in assay [10], “synergistic promotion of apoptosis; also recorded: synergistic increase in doxorubicin-mediated apoptosis; also recorded: extent of cooperativity appears to be greater at higher concentrations of OSI-906, i.e. 3 μM, than that achieved maximally by a-IR3; also recorded: synergistic induction of apoptosis”. For the same compound, the “Erk activation state, co-treatment with doxorubicin” value in assay [11] (OSI-906 3 uM plus doxorubicin) is “gain in activity can be inhibited upon co-treatment with OSI-906”. For the same compound, the “MAPK (Erk) pathway activity / activation state, single agent” value in assay [11] is listed as “achieves inhibition of both pathways”. Also, the “synergy for the combination of OSI-906 and taxol (apoptosis)” value in assay [12] is reported as “observed for H292, but not H358”. Further, the “overall cell growth, combination with taxol” value in [13] (5 μM OSI-906 with taxol, 72 hours, versus Bliss additivity) was “greater than additive inhibition of overall cell growth”. For the same compound, the “overall cell growth, single agent” value in [13] (OSI-906 alone) is given as “fails to promote apoptosis or significantly inhibit cell growth”. Also, in assay [14] (1 μM doxorubicin and 0.3 μM compound D), the “induction in apoptosis (caspase 3/7 activity), combination” value is “about 3 fold”. Further, the “overall cell growth, combination with doxorubicin” value was “synergistic promotion of apoptosis and inhibition of overall cell growth” in assay [15]; “synergistic promotion of apoptosis and inhibition of overall cell growth” in assay [16].

Regarding `COc1cccc2c1C(=O)c1c(O)c3c(c(O)c1C2=O)C[C@@](O)(C(=O)CO)C[C@@H]3O[C@H]1C[C@H](N)[C@H](O)[C@H](C)O1` [doxorubicin, reference compound], in assay [3], the “Akt pathway activity / activation state, single agent” value is “increase in the activation states for both Akt and Erk”. In addition, the “phosphorylation of IR, single agent” value in [5] was “promotes an upregulation of the phosphorylation state for both IR and IGF-1R”. Further, in assay [7], the “phosphorylation of IGF-1R, single agent” value is “promotes an upregulation of the phosphorylation state for both IR and IGF-1R”. Besides, the “Akt phosphorylation (pAkt-S473), single agent” value in assay [8] (24 hours) is listed as “promotes an increase in Akt phosphorylation”. The “MAPK (Erk) pathway activity / activation state, single agent” value in assay [11] was “increase in the activation states for both Akt and Erk”. Besides, the “induction in apoptosis (caspase 3/7 activity), single agent” value in assay [14] (doxorubicin alone) is reported as “only a small induction in apoptosis”.

Turning to `CC(=O)O[C@H]1C(=O)[C@@]2(C)[C@H]([C@H](OC(=O)c3ccccc3)[C@]3(O)C[C@H](OC(=O)[C@H](O)[C@@H](NC(=O)c4ccccc4)c4ccccc4)C(C)=C1C3(C)C)[C@]1(OC(C)=O)CO[C@@H]1C[C@@H]2O` [taxol, paclitaxel], the pAkt over time entry in assay [17] is listed as “modest increase in the Akt survival pathway, however this pathway is further driven upon prolonged 6 hour exposure to paclitaxel”. For the same compound, the IGF-1R phosphorylation result is reported as “Only in H292 tumor cells did taxol promote an increase in IGF-1R phosphorylation” in assay [18] and “promote an increase in IGF-1R phosphorylation” in assay [20] (H292, taxol 100 nM, 24 hours). Besides, the “pIGF-1R levels in tumors” value in assay [19] is recorded as “upregulated”. The pIGF-1R over time entry in assay [20] (H292 in vitro, 30 nM paclitaxel, 2 and 6 hours) is on record as “time-dependent increase in pIGF-1R”. Also, the EC50 (as a rule, the midpoint of the concentration-response curve) in assay [20] (Homo sapiens, NCI-H292, H292, 24 hours after dosing, read-out: EC50 for promoting phosphorylation of IGF-1R) is 10 nM. In assay [21], the “phosphorylation of the IGF-1R complex” value is recorded as “promote phosphorylation of the IGF-1R complex”.
